Experimental data taken from patent US7303866B2, “Methods of identifying an agent that modulates an interaction between 53BP1 and histone H3, and uses thereof” (priority 2004, dated 2007).
Where a SMILES comes first, the peptide text is derived from it. Where no end group is shown, it is not given here. [ ]: non-standard residue; d: D form. Lys(Me2) = CN(C)CCCC[C@H](N)C(=O)O; d = 2'-deoxy (DNA); r = 2'-OH (RNA)

What was measured:
human Dot1L = target: T1, human Dot1L (Homo sapiens, UniProt Q8TEK3); experiment: Suppression of histone H3 methylation on Lys79 by siRNA (immunoblot); format: cell-based; conditions: U2OS cells, dot1L siRNA transfection (up to 3 rounds)
T1 construct: U2OS cells were transfected with control siRNA (luciferase; Dharmacon) or siRNA directed against human dot1L; endogenous in cells; host or cells: U2OS osteosarcoma cells
T1 sequence (Q8TEK3 whole entry): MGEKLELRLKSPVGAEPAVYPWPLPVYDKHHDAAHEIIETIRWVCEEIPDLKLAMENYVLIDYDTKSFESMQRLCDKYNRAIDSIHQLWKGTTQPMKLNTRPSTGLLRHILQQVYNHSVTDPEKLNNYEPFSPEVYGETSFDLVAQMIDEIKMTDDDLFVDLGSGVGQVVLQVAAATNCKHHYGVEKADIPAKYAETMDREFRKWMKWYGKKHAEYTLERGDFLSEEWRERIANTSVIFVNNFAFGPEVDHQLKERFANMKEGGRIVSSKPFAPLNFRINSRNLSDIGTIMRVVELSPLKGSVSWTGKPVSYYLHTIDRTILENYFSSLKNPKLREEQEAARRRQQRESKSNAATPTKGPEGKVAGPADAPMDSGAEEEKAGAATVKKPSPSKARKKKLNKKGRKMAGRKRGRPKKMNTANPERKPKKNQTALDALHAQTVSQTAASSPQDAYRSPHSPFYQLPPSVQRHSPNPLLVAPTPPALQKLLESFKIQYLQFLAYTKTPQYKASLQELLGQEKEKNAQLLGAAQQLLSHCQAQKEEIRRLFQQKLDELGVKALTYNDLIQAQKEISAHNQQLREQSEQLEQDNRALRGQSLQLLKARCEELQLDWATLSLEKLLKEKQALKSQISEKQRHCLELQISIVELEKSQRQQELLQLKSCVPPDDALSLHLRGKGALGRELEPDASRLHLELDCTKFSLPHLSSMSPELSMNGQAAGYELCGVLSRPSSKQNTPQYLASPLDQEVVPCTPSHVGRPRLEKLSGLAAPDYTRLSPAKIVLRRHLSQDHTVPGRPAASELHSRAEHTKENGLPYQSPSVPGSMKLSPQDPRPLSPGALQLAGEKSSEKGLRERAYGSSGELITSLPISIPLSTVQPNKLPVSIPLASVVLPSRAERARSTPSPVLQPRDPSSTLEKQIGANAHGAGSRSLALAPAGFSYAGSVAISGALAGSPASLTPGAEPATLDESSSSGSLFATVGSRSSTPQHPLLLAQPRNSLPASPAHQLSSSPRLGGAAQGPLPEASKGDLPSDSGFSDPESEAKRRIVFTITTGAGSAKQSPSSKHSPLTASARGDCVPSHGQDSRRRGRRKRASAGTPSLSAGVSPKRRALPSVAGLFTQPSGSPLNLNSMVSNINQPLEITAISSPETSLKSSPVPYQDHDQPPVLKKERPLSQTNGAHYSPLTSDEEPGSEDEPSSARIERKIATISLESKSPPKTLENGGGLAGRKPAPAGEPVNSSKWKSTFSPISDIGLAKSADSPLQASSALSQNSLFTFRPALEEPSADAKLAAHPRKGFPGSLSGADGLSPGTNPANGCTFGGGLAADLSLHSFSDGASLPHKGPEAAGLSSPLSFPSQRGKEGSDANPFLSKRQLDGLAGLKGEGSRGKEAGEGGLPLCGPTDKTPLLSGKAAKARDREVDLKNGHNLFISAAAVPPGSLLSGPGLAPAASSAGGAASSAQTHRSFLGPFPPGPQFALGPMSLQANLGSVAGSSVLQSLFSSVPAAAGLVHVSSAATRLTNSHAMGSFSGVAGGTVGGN

U2OS cells = experiment: 53BP1 IR-induced foci in irradiated U2OS cells after siRNA (immunofluorescence); format: cell-based, human; conditions: 9 Gy IR, 15 min later
Description: FIG. 4 Histone H3 methylated on Lys79 and changes in higher order chromatin structure recruit 53BP1 to sites of DNA DSBs and chromatin. a, Suppression of histone H3 methylation on Lys79 inhibits recruitment of 53BP1 to sites of DNA DSBs. The percentage of irradiated (9 Gy) U2OS cells without (w/o) 53BP1 foci was determined from 4 independent experiments of control (ctl) siRNA-treated cells or cells transfected once (1) or 3 consecutive times (3) with dot1L-specific siRNA. Bars indicate standard errors. […] Histones prepared from non-irradiated or irradiated (9 Gy) 293T cells were resolved by SDS-PAGE and stained with Coomassie Brilliant Blue (C.B.; top panel) or immunoblotted with antibodies that recognize the C-terminus (C-ter) of histone H3, histone H3 dimethylated on Lys79 (K79dm), histone H2AX and phosphorylated histone H2AX (γ-H2AX; middle panel). […] Bound histone H3 was detected by immunoblotting (IB; lower panel). c, Exposure of cells to hypotonic media slows the nuclear diffusion of 53BP1. […] To show differences in GFP-53BP1 fluorescence before and after bleaching, the post-bleach image was pseudocolored magenta and merged with the pre-bleach image (Diff. image). […]
3 days after the last siRNA transfection, the cells were exposed to 9 Gy IR and 53BP1 intracellular localization was monitored by immunofluorescence 15 min later^5.

[1] = target: T2, GST-53BP1 fusion protein containing 53BP1 residues 1480-1626 (Homo sapiens, UniProt Q12888); experiment: Competition of binding of GST-53BP1 to histone H3 by histone H3 peptides (pull-down, immunoblot); conditions: 5 or 25 μg peptide; histones prepared from 293T cells; bound histone H3 detected by immunoblotting
T2 construct: a GST-53BP1 fusion protein containing 53BP1 residues 1480-1626 to histones prepared from 293T cells
T2 sequence (Q12888 1480-1626): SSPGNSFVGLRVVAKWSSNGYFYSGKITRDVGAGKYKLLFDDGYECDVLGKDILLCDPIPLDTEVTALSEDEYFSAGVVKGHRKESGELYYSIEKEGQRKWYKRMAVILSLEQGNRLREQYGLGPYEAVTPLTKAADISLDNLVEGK
Description: FIG. 3 Binding of the tandem tudor domain of 53BP1 to histone H3 methylated on Lys79. a, GST-53BP1 fusion proteins containing residues 1157-1634 or 1480-1626 of human 53BP1 or plain GST protein were examined for binding to calf thymus histones (ct) or recombinant histones H3 and H4 (r). The proteins were resolved by SDS-PAGE and stained with Coomassie Brilliant Blue. The labels for H3, H2A, H2B and H4 refer to the input histones (Inp. Hist.). b, Identification of 53BP1-bound histones as full-length and N-terminally-cleaved histone H3. Input and GST-53BP1-bound histones were stained with Coomassie Brilliant Blue (C.B.) or immunoblotted (IB) with an antibody that recognizes the C-terminus (C-ter) of histone H3. c, Enrichment for methylation of Lys79 in histone H3 bound to GST-53BP1 as compared to input histone H3. Bound full-length histone H3 (aa 1-135), bound cleaved histone H3 (aa 28-135) and full-length histone H3 from the input fraction were analyzed by tandem mass spectrometry (MS/MS). For each sample, the identified peptides that include Lys79 are shown. K, K# and K## represent non-, mono- and di-methylated lysine, respectively. TIC, total ion current (an indicator of peptide abundance); dM, absolute difference of the experimental and theoretical masses; xCorr, cross correlation value of the experimental MS/MS spectrum versus the theoretical; Ions, number of matched ions in the experimental MS/MS spectrum versus the total number of theoretically possible ions. d, Competition of binding of 53BP1 to histone H3 by methylated histone H3 peptides. Binding of a GST-53BP1 fusion protein containing 53BP1 residues 1480-1626 to histones prepared from 293T cells was performed in the presence of no competitor peptide (−) or 5 or 25 μg histone H3 peptides. Bound histone H3 was detected by immunoblotting. Peptides spanning residues 74-83 of histone H3 had either non- (nm), mono- (mm) or di-methylated (dm) Lys79 (K79); peptides spanning residues 23-34 and 23-32 of histone H3 had dimethylated Lys27 (K27) and Arg26 (R26), respectively. e, Binding of a GST fusion protein containing S. cerevisiae Rad9 residues 750-917 to histone H3. Binding was examined as in a. f, Amino acid substitutions that disrupt recruitment of 53BP1 to sites of DNA DSBs also disrupt binding to histone H3. Binding was examined as in a. g, Crosslinking of ectopically-expressed His-tagged GFP-53BP1 to endogenous histone H3 in irradiated U2OS cells. Non-transfected U2OS cells (−) or cells transfected with His-tagged GFP-53BP1 fusion proteins having wild-type (wt) or mutant (Asp1521Arg, D1521R) 53BP1 were crosslinked with formaldehyde (fr) or were mock-crosslinked (m). Triton-X100 insoluble material (TrIM) from these cells was incubated with nickel-coated beads. Histone H3 in the TrIM and nickel bead-bound (NiBB) fractions was detected by immunoblotting after the crosslinks were reversed.
Glutathione S-transferase (GST) proteins (5 μg) fused to residues 1157-1634 or 1480-1626 of human 53BP1 or 750-917 of S. cerevisiae Rad9 were bound to glutathione beads (Pharmacia). The beads were then incubated for 1 h at 4° C. with histones in buffer containing 25 mM BTP [pH 6.8], 1 M KCl, and 0.5% Triton X-100. After 6 washes the bound material was resolved on SDS-polyacrylamide gels and either stained with Coomassie Brilliant Blue or immunoblotted with an antibody that recognizes the C-terminus of histone H3 (AbCam). […]

[2] = target: 53BP1 tandem tudor domain (Homo sapiens, UniProt Q12888); experiment: Isothermal titration calorimetry; format: binding; conditions: data not shown; read-out: dissociation constant
Chain of 53BP1 tandem tudor domain (Q12888 1484-1603 limits assumed): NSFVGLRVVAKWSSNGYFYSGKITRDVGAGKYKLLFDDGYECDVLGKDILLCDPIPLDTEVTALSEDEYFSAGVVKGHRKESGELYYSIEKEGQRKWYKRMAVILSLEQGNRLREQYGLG

Molecule | competition for binding of histone H3 to 53BP1 [1] | also measured
GCUCGCUAUGGAGAAUUACdTdT (guide GCUCGCUAUGGAGAAUUACTT; siRNA; sugars from the 5' end r19 d2, backbone not given here) [siRNA specific for human Dot1L, siRNA directed against human dot1L] | – | methylation of histone H3 on Lys79 (human Dot1L): suppressed; recruitment of 53BP1 to sites of DNA DSBs (U2OS cells): suppressed
monomethylated Lys79 peptide: peptide spanning residues 74-83 of histone H3 with mono-methylated Lys79 (IAQDFK(Me)TDLR) | competed with lower efficiency | –
peptide with dimethylated Lys27: peptide spanning residues 23-34 of histone H3 with dimethylated Lys27 (KAARKSAPATGG; Lys27 dimethylated; UniProt P68431 24-35, looked up, fragment) | competed with lower efficiency | –
CC[C@H](C)[C@H](N)C(=O)N[C@@H](C)C(=O)N[C@@H](CCC(N)=O)C(=O)N[C@@H](CC(=O)O)C(=O)N[C@@H](Cc1ccccc1)C(=O)N[C@@H](CCCCN(C)C)C(=O)N[C@H](C(=O)N[C@@H](CC(=O)O)C(=O)N[C@@H](CC(C)C)C(=O)N[C@@H](CCCNC(=N)N)C(=O)O)[C@@H](C)O (H-IAQDF[Lys(Me2)]TDLR-OH; N-terminus and C-terminus assumed) | competed for binding of histone H3 to 53BP1 | Kd [2]: < 1000 nM

Now from value to molecule, other results behind:

competition for binding of histone H3 to 53BP1 [1] | Molecule | also measured
did not compete | corresponding non-methylated peptide: peptide spanning residues 74-83 of histone H3 with non-methylated Lys79 (IAQDFKTDLR) | –
competed with lower efficiency | peptide with dimethylated Arg26: peptide spanning residues 23-32 of histone H3 with dimethylated Arg26 (KAARKSAPAT; dimethylated Arg26; UniProt P68431 24-33, looked up, fragment) | –
